Columns and labels:
[1] = tested on: brain level of homovanillic acid (HVA); assay: Effect of Drug Compounds on Brain Level of Homovanillic Acid (HVA); assay type: in vivo, male Long Evans rats; conditions: ratio to HVA level in control group (1.0); rat brain minus cerebella, 0.15 mmoles/kg i.p. standard dose, 2 or 3 hours; only ratios greater than 1.6 considered of practical significance
Experimental: In testing for the effectiveness of the present drug compounds on the brain level of homovanillic acid (HVA), the drugs were administered intraperitoneally to male Long Evans rats (Simonsen) usually as aqueous solutions but in certain cases as suspensions in 0.5% methocel in 0.9% saline. The standard testing dose was 0.15 mmoles/kg. body weight. The test and control groups consisted of 3-5 and 5 animals, respectively. The analyses were performed on brains (minus cerebella) removed 2 or 3 hours later. In the analysis, standard extraction and fluorimetric methods were used.
In the results, the level of brain HVA in each test group is expressed as a ratio to the level of HVA in an accompanying control group that was injected with either a 0.9% saline or a 0.5% solution of methocel. Even though ratios of […] 1.3 usually have statistical significance, only ratios greater than 1.6 are considered to be of practical significance for the pharmacological classification of drugs.

[2] = tested on: Methamphetamine induced hyperactivity; assay: Antagonism of Methamphetamine induced hyperactivity in rats; assay type: in vivo, Male Long-Evans black hooded rats; set-up: key: (+): potentiation of Methamphetamine; (-): antagonism of Methamphetamine; conditions: sign printed with oral ED50; rat, oral 5, 20 and 80 mg./kg.
Experimental: Male Long-Evans black hooded rats, weighing between 100 and 150 grams, were administered the test drugs at oral doses of 5, 20 and 80 mg./kg. 1 hour prior to the administration of Methamphetamine at an intraperitoneal dose of 1 mg./kg. Three animals were tested at each dose level. The rats were placed in individual activity chambers equipped with photocells (Lehigh Valley, Model 1497). Antagonism of Methamphetamine induced hyperactivity was recorded as digital counts received from the photocells at one and two hour intervals. Placebo controls received a volume dose of the 0.5 carboxymethylcellulose vehicle. The data were evaluated by a one-way analysis of variance computer program. ED50 's were calculated by the method of Litchfield and Wilcoxon (J. Pharmacol. Exp. Therap.; 96:99, 1949).
In the results, a (+) indicates a potentiation of Methamphetamine and a (-) is antagonism of Methamphetamine.

Row | SMILES | HVA Ratio [1] | direction of effect on Methamphetamine [2]
1 | CCCCCCCCCCCCCCCC(=O)OCCOCCN1CCN(C2=Nc3cc(Cl)ccc3Nc3ccccc32)CC1 [IX, 8-Chloro-11-[4-2-(2-palmitoyloxyethoxy)-ethylpiperazinyl]-5H-dibenzo[b,e][1,4]diazepine] | 1.0 | (-)
2 | OCCOCCN1CCN(C2=Nc3cc(Cl)ccc3Nc3ccccc32)CC1 [VI, 8-Chloro-11-[4-2-(2-hydroxyethoxy)ethyl-1-piperazinyl]-5H-dibenzo[b,e][1,4]diazepine] | 2.8 | (-)
3 | COCCOCCN1CCN(C2=Nc3cc(Cl)ccc3Nc3ccccc32)CC1 [VII, 8-Chloro-11[4-2-(2-methoxyethoxy)-ethylpiperazine]-5H-dibenzo[b,e][1,4]diazepine] | 3.1 | (-)
4 | OCCOCCOCCN1CCN(C2=Nc3cc(Cl)ccc3Nc3ccccc32)CC1 [VIII, 8-Chloro-11-[4-2-(2-hydroxyethoxyethoxy)-ethylpiperazinyl]-5H-dibenzo[b,e][1,4]diazepine] | 1.4 | (-)
5 | CCCCCCCCCCCCCCCC(=O)OCCOCCN1CCN(C2=Nc3cc(Cl)ccc3N(C(=O)CCCCCCCCCCCCCCC)c3ccccc32)CC1 [X, 8-Chloro-11-[4-2-(2-palmitoyloxyethoxy)-ethylpiperazinyl]-5-palmitoyl-dibenzo[b,e][1,4]diazepine] |  | (-)

Source: patent US4097597A, “Dibenzo[b,e][1,4]diazepines” (Abbott Laboratories, priority 1977, dated 1978)
